Test results published in patent US4931391A, “Method for preservation of nitrile hydration activity” (Mitsubishi Rayon Kabushiki Kaisha, priority 1986, dated 1990).
Read-outs that look alike come from different tables or passages of the source.

How the values were obtained:
[1] = target: T1, (Rhodococcus erythropolis, UniProt P13448+P13449); assay: Preservation of nitrile hydration activity of cell extract prepared as in Comparison Example 1, stabilizer added to extract; type: biochemical, Corynebacterium strain N-774(FERM P-4446)
T1 sequence (P13448 2-207 limits assumed): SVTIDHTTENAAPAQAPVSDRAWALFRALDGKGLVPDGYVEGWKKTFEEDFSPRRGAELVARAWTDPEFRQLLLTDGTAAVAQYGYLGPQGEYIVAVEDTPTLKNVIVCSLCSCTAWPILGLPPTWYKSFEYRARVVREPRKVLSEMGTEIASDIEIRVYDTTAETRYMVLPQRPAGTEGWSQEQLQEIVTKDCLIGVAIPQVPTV
T1 sequence (P13449 1-212): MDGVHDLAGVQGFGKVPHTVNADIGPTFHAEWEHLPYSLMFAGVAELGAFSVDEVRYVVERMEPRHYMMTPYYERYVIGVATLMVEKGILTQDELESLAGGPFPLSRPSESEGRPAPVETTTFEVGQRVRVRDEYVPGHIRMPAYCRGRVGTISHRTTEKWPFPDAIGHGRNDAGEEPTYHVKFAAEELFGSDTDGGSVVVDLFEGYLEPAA

[2] = target: immobilized nitrilase (Rhodococcus erythropolis, UniProt P13448+P13449); assay: Preservation of nitrile hydration activity of immobilized enzyme (polyacrylamide gel); type: biochemical, Corynebacterium strain N-774(FERM P-4446); conditions: 0° C., 20 minutes
Procedure: 40 ml of a cell extract prepared as in Example 1, 4.5 g of acrylamide, 0.5 g of N,N'-methylenebisacrylamide, and 40 ml of M/20 phosphate buffer (containing 10 g/l of ammonium isobutyrate, pH 6.0) were mixed to form a homogeneous suspension. To this suspension were added 5 ml of a 5% aqueous solution of dimethylaminopropionitrile and 10 ml of a 1.0% aqueous solution of potassium persulfate, and the mixture was maintained at 10° C. for 30 minutes to cause polymerization. A mass of cell-containing gel obtained was crushed into small particles, which were thoroughly washed with M/20 phosphate buffer containing 5 g/l of ammonium isobutyrate, pH 7.0, whereby approximately 90 g of an immobilized enzyme was obtained.
The washed, immobilized enzyme thus obtained was placed in the same buffer containing 5 g/l of isobutyric acid and left standing at 20° C. for 3 days.
The nitrile hydration activity levels of the gel samples were measured as follows before and after the respective immobilized enzymes were left standing.
1 g of immobilized gel was mixed with 5 g of acrylonitrile and 97 ml of M/20 phosphate buffer (pH 7.7), and the mixture was subjected to reaction at 0° C. for 20 minutes with stirring. The quantities of acrylamide in the respective reaction solutions were determined by gas chromatography.

[3] = 48 h, pH 6.5; read-out: % Residual Activity (Nitrile Added)
[4] = 48 h; 10 mg amide in 2.5 ml buffer + 2.5 ml extract; pH 6.5; 20° C. for 2 days; read-out: % Residual Activity (Amide Added)
[5] = 48 h, pH 6.5, read-out: % Residual Activity (Organic Acid Added)
[6] = 48 h; 10 mg organic acid in 2.5 ml buffer + 2.5 ml extract; pH 6.5; 20° C. for 2 days; read-out: % Residual Activity (Organic Acid Added)
[7] = 48 h, pH 6, read-out: % Residual Activity
[8] = 48 h, pH 7, read-out: % Residual Activity
[9] = 48 h, pH 6.5; read-out: % Residual Activity (Organic Acid Added)
[10] = pH 6, read-out: % Residual Activity
[11] = stabilizer concentration 0.01 g/l; pH 6.0; extract 0.7×10^3 U/ml; 20° C. for 2 days; read-out: % Residual Activity
[12] = stabilizer concentration 5.0 g/l; pH 6.0; extract 0.7×10^3 U/ml; 20° C. for 2 days; read-out: % Residual Activity
[13] = stabilizer concentration 20 g/l; pH 6.0; […]; 20° C. for 2 days; read-out: % Residual Activity
[14] = stabilizer concentration 50 g/l; pH 6.0; extract 0.7×10^3 U/ml; 20° C. for 2 days; read-out: % Residual Activity
[15] = 48 h; 10 mg nitrile in 2.5 ml buffer + 2.5 ml extract (0.8×10^3 U/ml); pH 6.5; 20° C. for 2 days; read-out: % Residual Activity (Nitrile Added)
[16] = 48 h, pH 6.5; read-out: % Residual Activity (Amide Added)
[17] = stabilizer concentration 1.0 g/l; pH 6.0; […]; 20° C. for 2 days; read-out: % Residual Activity

SMILES: N#Cc1cccnc1 [Nicotinonitrile]
- activity at 2000 µg/mL [1, 3]: 43%

SMILES: CC(O)C(N)=O (stereo not shown) [Lactamide]
- activity at 2000 µg/mL [1, 4]: 50%

SMILES: NCCC(N)=O [β-Aminopropionamide]
- activity at 2000 µg/mL [1, 4]: 52%

SMILES: NC(=O)CCCl [β-Chloropropionamide]
- activity at 2000 µg/mL [1, 4]: 68%

SMILES: N#CCCCCC#N [Adiponitrile]
- activity at 2000 µg/mL [1, 3]: 68%

SMILES: CC(N)=O [Acetamide]
- activity at 2000 µg/mL [1, 4]: 57%

SMILES: C=C(C)C(N)=O [Methacrylamide]
- activity at 2000 µg/mL [1, 4]: 70%

SMILES: CC(=O)O [Acetic acid]
- activity at 2000 µg/mL [1, 5]: 55%

SMILES: C=CC#N [Acrylonitrile]
- activity at 2000 µg/mL [1, 3]: 56%

SMILES: CCCCCC(N)=O [n-Capronamide]
- activity at 2000 µg/mL [1, 4]: 75%

SMILES: CCCCCC#N [n-Capronitrile]
- activity at 2000 µg/mL [1, 3]: 71%

SMILES: O=C(O)CC(O)C(=O)O (stereo not shown) [Malic acid]
- activity at 2000 µg/mL [1, 6]: 43%

SMILES: NC(=O)CC(N)=O [Malondiamide]
- activity at 2000 µg/mL [1, 4]: 48%

SMILES: CC(C)C#N [Isobutyronitrile]
- activity at 25 mg ([1]; 48 h, pH 5; read-out: % Residual Activity): 3%
- activity at 25 mg [1, 7]: 82%
- activity at 2000 µg/mL [1, 3]: 88%
- activity at 25 mg [1, 8]: 77%
- activity at 25 mg ([1]; 48 h, pH 8; read-out: % Residual Activity): 45%

SMILES: O=C(O)C(O)CO (racemic) [DL-Glyceric acid]
- activity at 2000 µg/mL [1, 6]: 60%

SMILES: CC#N [Acetonitrile]
- activity at 2000 µg/mL ([1]; 48 h, pH 6.5, read-out: % Residual Activity (Nitrile Added)): 61%

SMILES: N#CCCCl [β-Chloropropionitrile]
- activity at 2000 µg/mL [1, 3]: 63%

SMILES: C=C(C)C(=O)O [Methacrylic acid]
- activity at 2000 µg/mL [1, 9]: 59%

SMILES: NC(=O)CCO [β-Hydroxypropionamide]
- activity at 2000 µg/mL [1, 4]: 61%

SMILES: N#CCC#N [Malononitrile]
- activity at 2000 µg/mL ([1]; 48 h; pH 6.5; 20° C. for 2 days; read-out: % Residual Activity (Nitrile Added)): 55%

SMILES: CCC(N)=O [Propionamide]
- activity at 2000 µg/mL [1, 4]: 83%

SMILES: CCC#N [Propionitrile]
- activity at 2000 µg/mL [1, 3]: 83%

SMILES: O=CO [Formic acid]
- activity at 2000 µg/mL [1, 5]: 48%

SMILES: CCCC(=O)O [Butyric acid]
- remaining activity at 100 µg/mL [1, 10]: 87%
- remaining activity at 10 µg/mL [1, 11]: 63%
- remaining activity at 1000 µg/mL ([1]; stabilizer concentration 1.0 g/l; pH 6.0; extract 0.7×10^3 U/ml; 20° C. for 2 days; read-out: % Residual Activity): 92%
- remaining activity at 5000 µg/mL [1, 12]: 90%
- remaining activity at 20000 µg/mL [1, 13]: 85%
- remaining activity at 50000 µg/mL [1, 14]: 67%

SMILES: CCCCC#N [n-Valeronitrile]
- activity at 2000 µg/mL [1, 3]: 82%

SMILES: N#CCCN [β-Aminopropionitrile]
- activity at 2000 µg/mL [1, 3]: 55%

SMILES: N#CCC(=O)O [Cyanoacetic acid]
- activity at 2000 µg/mL [1, 15]: 54%

SMILES: N#CCC(N)=O [Cyanoacetamide]
- activity at 2000 µg/mL [1, 3]: 53%

SMILES: O=C(O)CCC(=O)O [Succinic acid]
- activity at 2000 µg/mL [1, 5]: 59%

SMILES: N#Cc1ccccc1 [Benzonitrile]
- activity at 2000 µg/mL [1, 15]: 44%

SMILES: O=C(O)c1ccccc1 [Benzoic acid]
- activity at 2000 µg/mL [1, 9]: 48%

SMILES: O=CC(=O)O [Glyoxylic acid]
- activity at 2000 µg/mL [1, 6]: 72%

SMILES: O=C(O)CO [Glycolic acid]
- activity at 2000 µg/mL [1, 6]: 52%

SMILES: CC(C)C(=O)O [Isobutyric acid]
- activity at 25 mg ([1]; 48 h, pH 5, read-out: % Residual Activity): 2%
- activity at 25 mg ([1]; 48 h, pH 5.5, read-out: % Residual Activity): 82%
- activity at 25 mg [1, 7]: 83%
- activity at 2000 µg/mL [1, 5]: 83%
- activity at 25 mg [1, 8]: 77%
- activity at 25 mg ([1]; 48 h, pH 8, read-out: % Residual Activity): 42%
- Quant. of AA produced (%) after enzyme was left standing ([2]; after standing at 20° C. for 3 days in buffer containing 5 g/l of isobutyric acid, 1 g gel): 0.60%
- Quant. of AA produced (%) before enzyme was left standing ([2]; immobilized gel, 1 g with 5 g acrylonitrile, immobilized and washed with stabilizer): 0.71%

SMILES: O=C(O)CC(=O)C(=O)O [Oxalacetic acid]
- activity at 2000 µg/mL [1, 6]: 68%

SMILES: NC(=O)c1ccccc1 [Benzamide]
- activity at 2000 µg/mL [1, 4]: 47%

SMILES: N#CCCO [β-Hydroxypropionitrile]
- activity at 2000 µg/mL [1, 3]: 78%

SMILES: NC(=O)c1cccnc1 [Nicotinamide]
- activity at 2000 µg/mL [1, 16]: 39%

SMILES: N#CCCl [Chloroacetonitrile]
- activity at 2000 µg/mL [1, 3]: 58%

SMILES: CC(O)C#N (stereo not shown) [Lactonitrile]
- activity at 2000 µg/mL [1, 3]: 49%

SMILES: C=CC(=O)O [Acrylic acid]
- activity at 2000 µg/mL [1, 9]: 53%

SMILES: N#CCCC#N [Succinonitrile]
- activity at 2000 µg/mL [1, 3]: 70%

SMILES: NC(=O)CCC(N)=O [Succindiamide]
- activity at 2000 µg/mL [1, 4]: 63%

SMILES: CCCC#N [n-Butyronitrile]
- activity at 2000 µg/mL [1, 3]: 93%
- remaining activity at 100 µg/mL [1, 10]: 82%
- remaining activity at 10 µg/mL ([1]; stabilizer concentration 0.01 g/l; pH 6.0; […]; 20° C. for 2 days; read-out: % Residual Activity): 60%
- remaining activity at 1000 µg/mL [1, 17]: 88%
- remaining activity at 5000 µg/mL ([1]; stabilizer concentration 5.0 g/l; pH 6.0; […]; 20° C. for 2 days; read-out: % Residual Activity): 86%
- remaining activity at 20000 µg/mL [1, 13]: 70%

SMILES: NC(=O)CCl [Chloroacetamide]
- activity at 2000 µg/mL ([1]; 48 h, pH 6.5, read-out: % Residual Activity (Amide Added)): 60%

SMILES: O=C(O)CCl [Monochloroacetic acid]
- activity at 2000 µg/mL [1, 9]: 39%

SMILES: CCCCC(=O)O [Valeric acid]
- activity at 2000 µg/mL [1, 6]: 81%

SMILES: CC(C)C(N)=O [Isobutyramide]
- activity at 25 mg [1, 7]: 80%
- activity at 25 mg ([1]; 48 h, pH 7; read-out: % Residual Activity): 74%
- activity at 2000 µg/mL [1, 4]: 85%
- activity at 25 mg ([1]; 48 h; pH 5.0; 25 mg stabilizer in 2.5 ml buffer + 2.5 ml extract (1×10^3 U/ml); 20° C. for 2 days; read-out: % Residual Activity): 4%
- activity at 25 mg ([1]; 48 h; pH 8.0; 25 mg stabilizer in 2.5 ml buffer + 2.5 ml extract (1×10^3 U/ml); 20° C. for 2 days; read-out: % Residual Activity): 48%

SMILES: CCC(=O)O [Propionic acid]
- activity at 2000 µg/mL [1, 5]: 78%

SMILES: CCCCCC(=O)O [Caproic acid]
- activity at 2000 µg/mL [1, 9]: 78%

SMILES: C=C(C)C#N [Methacrylonitrile]
- activity at 2000 µg/mL [1, 3]: 62%

SMILES: NCC(N)=O [Glycine amide]
- activity at 2000 µg/mL [1, 4]: 49%

SMILES: CCCC(N)=O [n-Butyramide]
- activity at 2000 µg/mL [1, 4]: 90%
- remaining activity at 20000 µg/mL [1, 10]: 78%
- remaining activity at 10 µg/mL [1, 11]: 60%
- remaining activity at 100 µg/mL ([1]; stabilizer concentration 0.1 g/l; pH 6.0; […]; 20° C. for 2 days; read-out: % Residual Activity): 85%
- remaining activity at 1000 µg/mL [1, 17]: 85%
- remaining activity at 5000 µg/mL [1, 12]: 89%
- remaining activity at 50000 µg/mL [1, 14]: 63%

SMILES: NCCC(=O)O [β-Aminopropionic acid]
- activity at 2000 µg/mL [1, 5]: 45%

SMILES: C=CC(N)=O [Acrylamide]
- activity at 2000 µg/mL [1, 16]: 63%

SMILES: CCCCC(N)=O [n-Valeramide]
- activity at 2000 µg/mL [1, 4]: 78%

SMILES: N#CCN [Glycine nitrile]
- activity at 2000 µg/mL [1, 3]: 58%
